Experiments:
[1] = molecular target: T1, HDAC3 (Homo sapiens, UniProt O15379); assay: HDAC3 fluorogenic enzyme assay kit (BPS Bioscience), cell-free; format: biochemical; conditions: 0.001-10 μmol/L inhibitor
T1 construct: purchased BPS Bioscience 50063

[2] = molecular target: T2, HDAC2 (Homo sapiens, UniProt Q92769); assay: HDAC2 fluorogenic enzyme assay kit (BPS Bioscience), cell-free; format: biochemical; conditions: 0.001-10 μmol/L inhibitor
T2 construct: purchased BPS Bioscience 50062

[3] = system: SHR aortas; assay: Aortic wall thickness (H&E) in SHRs; format: in vivo, rats
Excerpt: For the essential hypertension animal experiment, SHRs were used. The SHR is the most used model animal model for hypertension and is generally regarded as an essential hypertension model.13 SHRs (6 weeks old, approximately 170 g) were purchased from Charles River (Yokohama, Japan). Rats were intraperitoneally administered LMK235 or vehicle every 3 days for 2 weeks (n = 4 per group). The paraffin‐embedded tissues were cut into 3‐μm‐thick sections, deparaffinized with xylene and then rehydrated with graded alcohol. Haematoxylin and eosin (H&E) staining was performed as described, with slight modifications.15 The arterial wall thickness was measured using NIS Elements Software (Nikon, Japan).

[4] = system: HUVECs; assay: Nitric oxide production in HUVECs (DAF-FM DA fluorescence); format: cell-based, Human; conditions: 1 μmol/L, 24 h
Protocol: A10 vascular smooth muscle cells (VSMCs) were incubated with Dulbecco's modified Eagle medium (DMEM) with 4500 mg/L glucose containing 10% foetal bovine serum (FBS). Passages were carried out every 2 or 3 days. VSMCs were maintained in DMEM in the presence of 10% FBS with low glucose (1000 mg/L). Human umbilical vein endothelial cells (HUVECs) were obtained from Gibco (Waltham, MA, USA). HUVECs were grown in an endothelial cell basal medium (EBM) with EGM‐2 bullet kit (Lonza, Walkersville, MD) and maintained at 37°C under 5% CO2. Cells were cultured for 5‐7 passages.
We used a nitric oxide‐sensitive fluorescence probe, 4‐amino‐5‐methylamino‐2′,7′‐difluorescein diacetate (DAF‐FM DA, Cayman), for nitric oxide detection. HUVECs were seeded on coverslips in 12‐well plates (1.5 × 10^5/mL). Cells, serum‐starved with EBM for 16 hour, were treated with LMK235 (1 μmol/L) or L‐NAME (250 μmol/L) for 24 hour and incubated with DAF‐FM DA (2.5 μmol/L) for 45 minutes. Next, the cells were fixed with 70% ethanol for 45 minutes and mounted using Prolog Gold antifade reagent and DAPI (Invitrogen, USA).

[5] = system: A10 cells; assay: qRT-PCR in CaMKIIα-transfected A10 cells; format: cell-based, rat
Protocol: A10 cells were seeded into 12‐well dishes. A10 cells were transfected with the indicated concentrations of pCMV‐SPORT6‐CaMKIIα. After 24 hours of transfection, total RNA was extracted and quantitative real time polymerase chain reaction (qRT‐PCR) was performed. For knockdown of HDAC5, rat HDAC5 siRNA or sicontrol was used in A10 cells using RNAiMAX reagent according to the manufacturer's guidelines. A concentration of 100 nmol/L of siRNA was used.
(§1) Total RNA from aortic tissue was isolated with TRIzol reagent (Invitrogen Life Technologies), and 1 μg of RNA was used for the reverse transcription reaction with TOPscript RT DryMIX (Enzynomics, South Korea). Quantification of mRNA levels was performed with the SYBR Green PCR kit (Enzynomics, South Korea).

[6] = system: angiotensin II‐induced hypertensive mice; assay: Systolic BP (tail-cuff) in angiotensin II-infusion mice; format: in vivo, CD‐1 mice; conditions: Ang II-infusion mice; 1 mg/kg/day i.p. for 7 days
Protocol: All animal procedures were approved by the Animal Experimental Committee of Chonnam National University Medical School (CNU IACUC‐H‐2014‐47) and carried out in accordance with the Guide for the Care and Use of Laboratory Animals (US National Institutes of Health Publications, 8th edition, 2011). CD‐1 mice (8 weeks old, 30‐35 g) were used in this study. Hypertension was induced by angiotensin II (Ang II, 1.3 mg/kg/day) infusion using 14‐day micro‐osmotic pumps (Alzet, model 1002; infusion rate of 0.25 μL/h) or saline alone. Ang II osmotic pumps were implanted subcutaneously after the injection of ketamine (120 mg/kg) and xylazine (6.2 mg/kg). One week after Ang II infusion, mice were administered LMK235 (1 or 3 mg/kg/day) or vehicle (dimethylsulphoxide [DMSO]) via intraperitoneal injection for 7 days. Mice were divided into three groups (n = 10‐12 per group): sham + vehicle, Ang II + vehicle, and Ang II + LMK235.
Systolic BP was measured by the tail‐cuff method (Visitech Systems, BP‐2000). Animals (mice and rats) were trained to allow for the measuring of BP before administration of the drug. Animals were trained to enter the holder at the same time more than three times a week to measure BP. For angiotensin II‐mice, systolic BP was measured when the mice were awake the day before they are killed. For SHRs, systolic BP was measured daily for 2 weeks.

[7] = system: AT1 and ACE1 mRNA; assay: AT1 and ACE1 mRNA (qRT-PCR) in aortas of SHRs; format: in vivo, rats
Protocol: For the essential hypertension animal experiment, SHRs were used. The SHR is the most used model animal model for hypertension and is generally regarded as an essential hypertension model.13 SHRs (6 weeks old, approximately 170 g) were purchased from Charles River (Yokohama, Japan). Rats were intraperitoneally administered LMK235 or vehicle every 3 days for 2 weeks (n = 4 per group).
as §1

[8] = system: A10 cells; assay: Western blot in A10 cells; format: cell-based, rat
Protocol: Cells were lysed in RIPA lysis buffer [150 mmol/L NaCl, 1% Triton X‐100, 1% sodium deoxycholate, 50 mmol/L Tris‐HCl pH 7.5, 2 mmol/L EDTA, 1 mmol/L PMSF, 1 mmol/L DTT, 1 mmol/L Na3VO4, and 5 mmol/L NaF] with protease inhibitor cocktail and sonicated. Approximately 30 μg of protein was separated by 10% sodium dodecyl sulphate‐polyacrylamide gel electrophoresis (SDS‐PAGE) and transferred to polyvinylidene difluoride (PVDF) membranes. After blocking with 5% skim milk for 1 hour, proteins were incubated with the primary antibodies overnight: anti‐cyclin D1 (1:1000), anti‐HDAC1 (1:1000), anti‐HDAC2 (1:1000), anti‐HDAC4 (1:1000) and anti‐HDAC5 (1:1000). As secondary antibodies, horse radish peroxidase‐linked antimouse or anti‐rabbit antibodies were used. Protein bands were visualized using Immobilon Western Detection Reagents (Millipore, Billerica, MA, USA). The Bio‐ID software was used to quantify protein expression (Vilber Lourmat, Eberhardzell, Germany).

T2 sequence (Q92769 whole entry): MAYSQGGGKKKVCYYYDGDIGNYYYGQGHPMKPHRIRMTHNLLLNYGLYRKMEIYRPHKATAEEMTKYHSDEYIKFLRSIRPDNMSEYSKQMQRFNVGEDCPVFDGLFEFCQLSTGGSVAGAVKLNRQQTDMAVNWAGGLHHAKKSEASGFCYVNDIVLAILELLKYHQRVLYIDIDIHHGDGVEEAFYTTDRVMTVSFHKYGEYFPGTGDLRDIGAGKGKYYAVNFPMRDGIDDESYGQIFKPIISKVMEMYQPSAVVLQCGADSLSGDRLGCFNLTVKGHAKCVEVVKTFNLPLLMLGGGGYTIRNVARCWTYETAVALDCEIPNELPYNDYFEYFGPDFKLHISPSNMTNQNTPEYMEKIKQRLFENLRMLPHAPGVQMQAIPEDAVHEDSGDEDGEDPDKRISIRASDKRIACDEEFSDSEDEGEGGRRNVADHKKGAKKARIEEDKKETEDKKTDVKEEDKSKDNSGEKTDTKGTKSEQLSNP
T1 sequence (O15379 whole entry): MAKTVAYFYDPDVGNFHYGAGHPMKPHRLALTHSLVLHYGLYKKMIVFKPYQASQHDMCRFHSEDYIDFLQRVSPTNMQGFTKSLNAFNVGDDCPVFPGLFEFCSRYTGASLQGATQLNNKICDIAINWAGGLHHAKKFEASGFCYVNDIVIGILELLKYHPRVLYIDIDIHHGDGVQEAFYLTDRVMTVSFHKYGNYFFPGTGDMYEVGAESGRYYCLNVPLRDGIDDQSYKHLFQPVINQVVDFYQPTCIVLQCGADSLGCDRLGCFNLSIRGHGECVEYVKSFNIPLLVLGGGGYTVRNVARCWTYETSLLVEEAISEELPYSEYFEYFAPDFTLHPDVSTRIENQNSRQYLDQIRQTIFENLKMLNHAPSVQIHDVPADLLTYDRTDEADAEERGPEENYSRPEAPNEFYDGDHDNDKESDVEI
T1 sequence (Q9Y618 395-489 partner limits assumed): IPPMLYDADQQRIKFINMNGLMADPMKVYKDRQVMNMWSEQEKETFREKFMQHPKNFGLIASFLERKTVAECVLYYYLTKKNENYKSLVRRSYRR

## Cc1cc(C)cc(C(=O)NOCCCCCC(=O)NO)c1 [LMK235]
[1]
  IC50: 37 nM
[2]
  IC50: 55 nM
[3]
  aortic wall thickness: reduced
[4]
  nitric oxide production: increased nitric oxide production
[5]; A10 cells, 1 μmol/L, 24 h
  cyclin D1 mRNA levels induced by overexpression of CaMKIIα: reduced
[5]; A10 cells, 1000 nmol/L, 24 hours
  mRNA levels of overexpressed CaMKIIα: did not change
[5]; CaMKIIα-transfected A10 cells, 1 μmol/L, 24 h
  mRNA expression of HDAC1, 2, 3, 4, 5, 7: significantly reduced
[6]
  systolic BP: sufficient to lower systolic BP
[7]
  AT1 mRNA levels in aorta: not affected
[8]; A10 cells without CaMKIIα transfection, 18 h
  protein expression of class I and IIa/b HDAC: reduced protein expression
[8]; CaMKIIα-transfected A10 cells
  CaMKIIα-induced cyclin D1 protein: reduced
  HDAC4 and HDAC5 proteins: significantly reduced
[8]; CaMKIIα-transfected A10 cells, 18 h
  protein expression of HDAC1 and HDAC2: significantly reduced

From paper PMC6433685, “Histone deacetylase inhibitor LMK235 attenuates vascular constriction and aortic remodelling in hypertension” (Journal of Cellular and Molecular Medicine, 2019)
